From patent US20240050735A1, “SYSTEMS AND METHODS FOR TREATING AND INHIBITING WOUND INFECTIONS” (priority 2020, published 2024)
Structures can show the parent of a compound that is named as a salt.

System: planktonic MRSA
Test: Time-killing test on planktonic MRSA in stationary phase
Assay type: cell-based, Methicillin-resistant S. aureus (MRSA) USA300
Settings: 10 mg mL^−1 VAN, 4-day incubation
Experimental: MRSA bacteria was cultured in LB media in a 37° C. water shaking bath overnight to reach the concentration of 1×10^8 CFU mL^−1. Then, they were diluted to 10^5 CFU mL^−1 in 96-well plates by adding different concentrations of VAN solutions. After incubation for 24 hours without shaking, MIC of VAN to inhibit MRSA growth was measured by a Biotek Synergy H1 hybrid multi-mode microplate reader (BioTek, Winooski, Vt., USA) at OD600. To evaluate the killing time of VAN to bacteria in stationary phase (1×10^8 CFU mL^−1), VAN powder was added to bacteria solution to obtain concentration of 1 mg mL^−1, 3 mg mL^−1, 5 mg mL^−1, and 10 mg mL^−1, respectively, while remaining MRSA concentration of 1×10^8 CFU mL^−1. After incubation in a 37° C. water bath for 1 day, 2 days, 3 days and 4 days, the CFU of MRSA cells was tested by the standard plate spread counting assay, respectively. The time-killing tests of DAP with different concentrations (0.1 mg mL^−1, 0.5 mg mL^−1, 1 mg mL^−1, and 5 mg mL^−1) on MRSA planktonic cells were also performed, with the incubation time up to 24 hours.

## CN[C@H](CC(C)C)C(=O)N[C@H]1C(=O)N[C@@H](CC(N)=O)C(=O)N[C@H]2C(=O)N[C@H]3C(=O)N[C@H](C(=O)N[C@H](C(=O)O)c4cc(O)cc(O)c4-c4cc3ccc4O)[C@H](O)c3ccc(c(Cl)c3)Oc3cc2cc(c3O[C@@H]2O[C@H](CO)[C@@H](O)[C@H](O)[C@H]2O[C@H]2C[C@](C)(N)[C@H](O)[C@H](C)O2)Oc2ccc(cc2Cl)[C@H]1O [VAN, Vancomycin hydrochloride]
  bacterial count after incubation (from 10^8 CFU g^−1): 10^6 CFU g^−1
